Results on 14 compounds are retold here after PubChem BioAssay (NCI).

Values joined by “and” are separate entries in the source; they are usually repeats but may differ in a detail not shown here. Equal entries are not always repeated.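 Growth conditions: 96-well plates. Treatment: test compound, 48 hours, 5 concentrations. Analysis: linear interpolation between bracketing concentrations; unreached endpoints set to highest concentration. The concentration for 50% growth inhibition is given as GI50. At the TGI there is no net growth.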

Common to all, as to assay: NCI anticancer screen, dose series, 48 h
The test system of test [1] is MOLT-4 leukemia.
The subject of test [2] is OVCAR-3 ovarian.
Test [3] deals with HCT-15 colon.
Test [4] relates to SK-OV-3 ovarian.
For test [5], the system named is MCF7 breast.
Test [6] relates to SF-268 CNS.
For test [7], the system named is U251 CNS.
Test [8] relates to CCRF-CEM leukemia.
The test system of test [9] is A498 renal.
For test [10], the system named is SR leukemia.

Consider `Cc1cc(S(=O)(=O)Nc2nc3cscc3c(=O)n2N)c(S)cc1Cl`, for which the TGI in [1], in [2], in test [3], in test [4], in [5] and in test [6] was greater than 100 µM throughout. Moreover, the TGI in test [7] and in test [8] was greater than 100 µM throughout.

Consider `O=C1C(N2CCN(CCOCCO)CC2)=C(Cl)C(=O)c2ncccc21`, for which the GI50 was 9.63 µM in [1]; greater than 100 µM in test [4]; greater than 100 µM in test [9]; 18.3 µM in test [5]; 13.5 µM in test [8]. Moreover, the TGI in test [1] is 5.15 µM and 31.4 µM; in test [2], 32.7 µM; in [3] it was 37.4 µM; in test [4], greater than 100 µM; in test [9] it was greater than 100 µM; in [5] it was 5.97 µM and 36.7 µM. The TGI in test [6] is 44.5 µM; in [7], 35.9 µM; in test [8], 4.44 µM and 35.9 µM.

With `Cc1cc(C)nc(NS(=O)(=O)c2ccc(NNc3c4ccccc4nc4c(C(=O)Nc5ccc(S(=O)(=O)Nc6cc(C)on6)cc5)cccc34)cc2)n1`, the TGI in test [1] was 82.2 µM; in test [2] it was 47.2 µM; in [3] it was greater than 100 µM; in test [10], 72.8 µM; in test [4], greater than 100 µM; in [5], greater than 100 µM. Moreover, the TGI in [6] amounted to 81.3 µM; in test [7], 79.2 µM; in test [8] it was 63.5 µM.

For the compound `Cc1cc2nc3ccccc3n2c2ccccc12`, the TGI in test [1], in test [2], in [3], in [10], in test [4] and in [5] was greater than 10 µM each time. Moreover, the TGI in [6], in test [7] and in [8] was greater than 10 µM in each case.

Consider `C=CC(C)(C)/C=C/c1ccc(O)cc1`, for which the TGI in test [1], in [2], in test [3], in test [4], in test [9] and in [5] was greater than 100 µM each time. Also, the TGI in [6], in [7] and in [8] was greater than 100 µM throughout.

For the compound `CC(C)[C@H](C)/C=C/[C@@H](C)C1CC[C@H]2[C@@]34C=C[C@]5(C[C@@H](O)CC[C@]5(C)[C@H]3CC[C@]12C)OO4` (stereo not given in full), the TGI in test [1] was greater than 100 µM; in [2], greater than 100 µM; in [3], greater than 100 µM; in test [4], greater than 100 µM; in test [9] it was 57.3 µM; in test [5], greater than 100 µM. Moreover, the TGI in test [6] was greater than 100 µM; in [7], 58.5 µM.

In the case of `CCOC(=O)c1cc2c3c(c(C(C)=O)c(OC)c2[nH]1)N(C(=O)CC)CC3`, the TGI is 35.9 µM in test [1]; 34.4 µM in test [2]; 34.2 µM in test [3]; greater than 100 µM in test [4]; greater than 100 µM in test [9]; 40.4 µM in test [5]. The TGI in [6] worked out at 36.6 µM; in [7], 47.6 µM; in [8], 71.4 µM.

For `C/C(=N\Nc1nc2ccccc2[nH]1)c1ncccn1`, the TGI in test [1] was greater than 100 µM; in test [2], 6.7 µM; in [3], greater than 100 µM; in test [10], greater than 100 µM; in test [4] it was greater than 100 µM; in test [9] it was 2.23 µM. In addition, the TGI in test [6] is greater than 93.3 µM; in test [7], greater than 100 µM; in test [8], greater than 100 µM.

Regarding `O=C1N2CCC[C@H]2CS1(=O)=O`, the TGI in test [1] is 22.5 µM; in test [2], 31.4 µM; in test [3], 29.4 µM; in test [4] it was greater than 100 µM; in [9], 44.5 µM; in [5] it was 21.8 µM. Also, the TGI in test [6] amounted to 42.7 µM; in [7], 30 µM; in test [8], 7.1 µM.

On to `CCOC(=O)CCc1cn2cc(Br)nc(OC)c2n1`, for which the TGI in [1], in [2], in test [3], in test [10], in [4] and in test [5] was greater than 100 µM throughout. Also, the TGI in test [6], in [7] and in test [8] was greater than 100 µM throughout.

For `CC(CCc1nc2ccccc2s1)(c1ccc(O)cc1)c1ccc(O)cc1`, the TGI in test [1] came out at 42.9 µM; in test [2], 31.3 µM; in test [3], 35.4 µM; in test [10], 53.3 µM; in test [9], 36.5 µM; in test [6], 40.5 µM. Also, the TGI in test [7] came to 27.7 µM.

With `Cc1ccc(N2C(=O)C3CSCN3C2=O)cc1` (stereo not given), the TGI in test [1], in [2], in test [3], in [4], in [9] and in test [5] was greater than 100 µM in each case. The TGI in [6], in test [7] and in test [8] was greater than 100 µM in each case.

With `O=C1c2ccccc2C2(c3ccc(F)cc3)NCCN12` (stereo not given), the TGI in [1], in [2], in test [3], in test [4], in test [5] and in [6] was greater than 100 µM each time. For the same compound, the TGI in test [7] and in test [8] was greater than 100 µM in each case.

`O=Nc1c(-c2c(O)[nH]c3ccc(I)cc23)[nH]c2ccccc12`: the TGI in test [2] was greater than 57.3 µM; in [3], greater than 39.9 µM; in test [4], greater than 35 µM; in test [9], greater than 27.6 µM; in test [5], greater than 19.9 µM; in test [6], 25.9 µM. Also, the TGI is greater than 40.9 µM in [7] and 5.07 µM in test [8].
